Consider 26 compounds from patent US20230075856A1, “CYCLIC SULFAMIDE COMPOUNDS FOR TREATMENT OF HBV” (Assembly Biosciences, Inc., priority 2018, published 2023).

In general, EC50 refers to the concentration needed to bring the measured effect to its halfway point.

SMILES strings stand for the structures.

For the first test, the system named is HBV viral load production from HepAD38 cells. Briefly: Viral production from HepAD38 cells: viral load in supernatant by qPCR of the HBV core sequence. Type of test: cell-based. The settings on record: 5 days incubation, qPCR of supernatant HBV DNA vs DMSO control, read-out: viral load lowering EC50 (Activity). In short, it runs like this:
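Viral load was measured by qPCR of the HBV core region in supernatant, quantified against DNA standards and compared with DMSO wells. Cells (50,000/well, tetracycline withdrawn, 2% FBS) received compound from 10 μM final for 5 days; EC50 from four-parameter nonlinear regression.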
Turning to `CN1C(C(=O)Nc2ccc(F)c(Cl)c2)CC(C(=O)NCc2cnc(-c3cccc(Cl)c3)s2)NS1(=O)=O` (single isomer, unassigned; isomer-b) [Compound 913-ISOMER-B, N3-(3-chloro-4-fluoro-phenyl)-N5-[[2-(3-chlorophenyl)thiazol-5-yl]methyl]-2-methyl-1,1-dioxo-1,2,-thiadiazinane-3,5-dicarboxamide], the half-maximal effective concentration (EC50) was less than 0.05 µM.

Consider `Cc1nc(-c2ccccc2)sc1CNC(=O)C1CC(C(=O)Nc2ccc(F)c(C#N)c2)N(C)S(=O)(=O)N1` (single isomer, unassigned) [1136-ISOMER-B, N3-(3-cyano-4-fluoro-phenyl)-2-methyl-N5-[(4-methyl-2-phenyl-thiazol-5-yl)methyl]-1,1-dioxo-1,2,6-thiadiazinane-3,5-dicarboxamide], for which the 50% effective concentration (EC50) was in the range of 0.1 to 10 µM.

Regarding `CN1C(C(=O)Nc2ccc(F)c(Cl)c2)CC(C(=O)NCc2cnc(C(F)(F)F)s2)NS1(=O)=O` (single isomer, unassigned) [Compound 498-ISOMER-B, N3-(3-chloro-4-fluoro-phenyl)-2-methyl-1,1-dioxo-N5-[[2-(trifluoromethyl)thiazol-5-yl]methyl]-1,2,6-thiadiazinane-3,5-dicarboxamide], the EC50 is 0.05 to 0.1 µM.

For `Cc1ccccc1-c1nc(C)c(CNC(=O)C2CC(C(=O)Nc3ccc(F)c(Cl)c3)N(C)S(=O)(=O)N2)s1` (single isomer, unassigned) [1017-ISOMER-B, N3-(3-chloro-4-fluoro-phenyl)-2-methyl-N5-[[4-methyl-2-(o-tolyl)thiazol-5-yl]methyl]-1,1-dioxo-1,2,6-thiadiazinane-3,5-dicarboxamide], the EC50 lay within 0.1 to 10 µM.

As to `CN1C(C(=O)Nc2ccc(F)c(Cl)c2)CC(C(=O)NCc2cnc(-c3ccc(C#CCN4CCCCC4)cc3)s2)NS1(=O)=O` (single isomer, unassigned) [Compound 946-ISOMER-B, N3-(3-chloro-4-fluoro-phenyl)-2-methyl-1,1-dioxo-N5-[[2-[4-[3-(1-piperidyl)prop-1-ynyl]phenyl]thiazol-5-yl]methyl]-1,2,6-thiadiazinane-3,5-dicarboxamide], the EC50 lay within 0.1 to 10 µM.

For `Cc1cn(-c2ccc(F)cc2F)nc1CNC(=O)C1CC(C(=O)Nc2ccc(F)c(Cl)c2)N(C)S(=O)(=O)N1` (single isomer, unassigned) [1144-ISOMER-B, N3-(3-chloro-4-fluoro-phenyl)-N5-[[1-(2,4-difluorophenyl)-4-methyl-pyrazol-3-yl]methyl]-2-methyl-1,1-dioxo-1,2,6-thiadiazinane-3,5-dicarboxamide], the concentration giving a half-maximal response (EC50) lay in the range of 0.1 to 10 µM.

`CN1C(C(=O)Nc2ccc(F)c(Cl)c2)CC(C(=O)NCc2ccc(Cl)cc2)NS1(=O)=O` (single isomer, unassigned) [Compound 729-ISOMER-B, N3-(3-chloro-4-fluoro-phenyl)-N5-[(4-chlorophenyl)methyl]-2-methyl-1,1-dioxo-1,2,6-thiadiazinane-3,5-dicarboxamide]: the concentration for a half-maximal effect (EC50) fell in the range of 0.1 to 10 µM.

Staying with this test, now noted: Hepatitis B virus, HePAD38, 120 h, 5 days incubation, qPCR of supernatant HBV DNA vs DMSO control, read-out: viral load lowering EC50 (Activity).
`C[C@H](NC(=O)C1CC(C(=O)Nc2ccc(F)c(Cl)c2)N(C)S(=O)(=O)N1)c1ccc(F)cc1` (some centres unmarked) [Compound 493-S]: the half-maximal effective concentration (EC50) was less than 0.05 µM.

As to `CN1C(C(=O)Nc2ccc(F)c(Cl)c2)CC(C(=O)NCc2ccn(-c3ccccc3)n2)NS1(=O)=O` (centres unmarked) [Compound 991], the EC50 is less than 0.05 µM.

For `CN1C(C(=O)Nc2ccc(F)c(Cl)c2)CC(C(=O)NCc2cnc(-c3ccc(OCCCN4CCCC4)cc3)s2)NS1(=O)=O` (centres unmarked) [Compound 928], the EC50 lay in the range of 0.05 to 0.1 µM.

Consider `C[C@@H](NC(=O)C1CC(C(=O)Nc2ccc(F)c(Cl)c2)N(C)S(=O)(=O)N1)C1CCCCC1` (some centres unmarked) [Compound 741], for which the EC50 was 0.05 to 0.1 µM.

Consider `Cc1cn(-c2ccccc2)nc1CNC(=O)C1CC(C(=O)Nc2ccc(F)c(Cl)c2)N(C)S(=O)(=O)N1` (centres unmarked) [Compound 1057], for which the EC50 is less than 0.05 µM.

For the compound `CN1C(C(=O)Nc2ccc(F)c(Cl)c2)CC(C(=O)NC2CCN(c3ccnc(Cl)c3)C2)NS1(=O)=O` (centres unmarked) [Compound 1055], the EC50 was less than 0.05 µM.

Consider `Cc1nc2c(s1)C(NC(=O)C1CC(C(=O)Nc3ccc(F)c(Cl)c3)N(C)S(=O)(=O)N1)CCC2` (centres unmarked) [Compound 918], for which the EC50 was less than 0.05 µM.

Regarding `Cc1nc(-c2ccc(OCCN3CCCCC3)cc2)sc1CNC(=O)C1CC(C(=O)Nc2ccc(F)c(Cl)c2)N(C)S(=O)(=O)N1` (centres unmarked) [Compound 1087], the EC50 was less than 0.05 µM.

Take `COc1ccccc1CNC(=O)C1CC(C(=O)Nc2ccc(F)c(Cl)c2)N(C)S(=O)(=O)N1` (centres unmarked) [Compound 822]: the EC50 is less than 0.05 µM.

With `Cc1cn(-c2ccccc2)nc1CNC(=O)C1CC(C(=O)Nc2ccc(F)c(C#N)c2)N(C)S(=O)(=O)N1` (single isomer, unassigned) [1134-ISOMER-A, N3-(3-cyano-4-fluoro-phenyl)-2-methyl-N5-[(4-methyl-1-phenyl-pyrazol-3-yl)methyl]-1,1-dioxo-1,2,6-thiadiazinane-3,5-dicarboxamide], the EC50 fell in the range of 0.1 to 10 µM.

With `CN1C(C(=O)Nc2ccc(F)c(Cl)c2)CC(C(=O)N[C@H](c2ccccc2)c2cnc(Cl)s2)NS1(=O)=O` (single isomer, unassigned) [1066-ISOMER-C], the EC50 is less than 0.05 µM.

Turning to `CN1C(C(=O)Nc2ccc(F)c(Cl)c2)CC(C(=O)NCc2cnc(-c3ccccc3)s2)NS1(=O)=O` (single isomer, unassigned) [Compound 691-ISOMER-A, N3-(3-chloro-4-fluoro-phenyl)-2-methyl-1,1-dioxo-N5-[(2-phenylthiazol-5-yl)methyl]-1,2,6-thiadiazinane-3,5-dicarboxamide], the EC50 was 0.1 to 10 µM.

Regarding `CN1C(C(=O)Nc2ccc(F)c(Cl)c2)CC(C(=O)NC2CCN(c3ccnc(-c4ccccc4)c3)CC2)NS1(=O)=O` (single isomer, unassigned) [1050-ISOMER-A, N3-(3-chloro-4-fluoro-phenyl)-2-methyl-1,1-dioxo-N5-[1-(2-phenyl-4-pyridyl)-4-piperidyl]-1,2,6-thiadiazinane-3,5-dicarboxamide], the 50% effective concentration (EC50) is 0.1 to 10 µM.

Consider `Cc1noc(CNC(=O)C2CC(C(=O)Nc3ccc(F)c(Cl)c3)N(C)S(=O)(=O)N2)n1` (centres unmarked) [Compound 685], for which the EC50 fell in the range of 0.1 to 10 µM.

Regarding `CN1C(C(=O)Nc2ccc(F)c(Cl)c2)CC(C(=O)NC(c2ccccc2)c2cnc(-c3ccccc3Cl)s2)NS1(=O)=O` (single isomer, unassigned) [1068-ISOMER-A, N3-(3-chloro-4-fluoro-phenyl)-N5-[[2-(2-chlorophenyl)thiazol-5-yl]-phenyl-methyl]-2-methyl-1,1-dioxo-1,2,6-thiadiazinane-3,5-dicarboxamide], the EC50 was less than 0.05 µM.

For the compound `CN1C(C(=O)Nc2ccc(F)c(Cl)c2)CC(C(=O)NC2CCN(C(=O)C3CC3)CC2)NS1(=O)=O` (single isomer, unassigned) [Compound 854-ISOMER-A, N3-(3-chloro-4-fluoro-phenyl)-N5-[1-(cyclopropanecarbonyl)-4-piperidyl]-2-methyl-1,1-dioxo-1,2,6-thiadiazinane-3,5-dicarboxamide], the EC50 is less than 0.05 µM.

As to `Cc1csc(CNC(=O)C2CC(C(=O)Nc3ccc(F)c(Cl)c3)N(C)S(=O)(=O)N2)n1` (centres unmarked) [Compound 686], the EC50 fell in the range of 0.05 to 0.1 µM.

As to `Cc1nc(-c2ccccc2Cl)sc1C(NC(=O)C1CC(C(=O)Nc2ccc(F)c(Cl)c2)N(C)S(=O)(=O)N1)c1ccccc1` (centres unmarked) [Compound 1100], the EC50 was in the range of 0.05 to 0.1 µM.

`CC(NC(=O)C1CC(C(=O)Nc2ccc(F)c(Cl)c2)N(C)S(=O)(=O)N1)c1ccc(F)cc1` (centres unmarked) [Compound 493]: the half-maximal effective concentration (EC50) was less than 0.05 µM.
